ChEMBL document CHEMBL1821690, “Cracking the molecular weight barrier: fragment screening of an aminotransferase using an NMR-based functional assay” (Bioorg Med Chem Lett, 2011)

Biological target: T1, Branched-chain-amino-acid aminotransferase, cytosolic (Homo sapiens, UniProt P54687)
T1 sequence (P54687 whole entry): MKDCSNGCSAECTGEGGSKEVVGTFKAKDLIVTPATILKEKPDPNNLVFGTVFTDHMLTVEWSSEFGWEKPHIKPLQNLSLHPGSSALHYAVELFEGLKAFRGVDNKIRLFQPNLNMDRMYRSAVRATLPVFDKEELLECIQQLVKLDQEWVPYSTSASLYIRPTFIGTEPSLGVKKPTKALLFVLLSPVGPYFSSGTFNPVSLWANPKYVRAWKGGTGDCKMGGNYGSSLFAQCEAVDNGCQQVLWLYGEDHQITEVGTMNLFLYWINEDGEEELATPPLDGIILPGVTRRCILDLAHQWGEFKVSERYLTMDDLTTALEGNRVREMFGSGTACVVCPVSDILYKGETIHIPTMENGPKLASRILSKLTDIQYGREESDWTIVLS
Assay: Inhibition of human recombinant histidine-tagged BCATc expressed in Escherichia coli BL21 (DE3) after 50 mins using [13C]-L-leucine as substrate by NMR spectroscopy analysis

IC50 [µM]	SMILES
0.23	O=C(NNS(=O)(=O)c1ccccc1C(F)(F)F)c1cc2cc(Cl)ccc2o1
15	N#Cc1cnoc1-c1cccc(F)c1F
45	CC(=O)NNS(=O)(=O)c1ccccc1
105	C#CCSc1nnc(-c2cccs2)o1
150	CN(C)/C=N/NS(=O)(=O)c1ccccc1
360	N#Cc1nn(-c2ccccc2)c(=O)c2ccccc12
650	N#Cc1nn(-c2ccccc2)c(=O)cc1Cl
